Data: patent US20250041387A1, “POLYPEPTIDE SEQUENCE OF KDM6B AND APPLICATION OF KDM6B IN REGULATING AND CONTROLLING FUNCTION OF MESENCHYMAL STEM CELL” (BEIJING STOMATOLOGICAL HOSPITAL, CAPITAL MEDICAL UNIVERSITY, priority 2021, published 2025)

Experiments:
[1] = tested on: stem cells from apical papilla; assay: Alizarin red staining and calcium quantification in SCAPs; format: cell-based, human; conditions: SCAPs treated with polypeptide, 2 weeks of odontogenic induction, FIG. 8F, G
Procedure: (§1) Result of ALP activity was calculated according to Y/incubation time/protein concentration. • (3) Alizarin red staining • 1) After two weeks of osteogenic induction, the culture medium was discarded. The cells were washed three times with PBS pre-cooled at 4° C., and fixed with 70% ethanol at 4° C. for 1 hour. • 2) The cells were washed 2 times with double distilled water, and stained with 40 mM alizarin red solution (pH 4.2) at room temperature for 10 minutes. The staining was observed by naked eyes. • 3) The cells were washed 3 times with double-distilled water. • (4) Determination of Ca^2+ concentration
(§2) To quantitatively determine the concentration of calcium, the cells were added with 10% cetyl pyridinium chloride for dissolution for 30 minutes at room temperature. The OD value was measured at 562 nm using a spectrophotometer, and the calcium ion concentration of the samples was calculated according to the standard curve of calcium ion concentration, with the total protein concentration as an internal reference.

[2] = tested on: bone marrow mesenchymal stem cells; assay: ALP activity of BMSCs after osteogenic induction; format: cell-based, human; conditions: 3 days of induction in osteogenic culture medium, FIG. 4D
Procedure: (§3) • (1) Osteogenic culture medium was purchased from Invitrogen, USA. • (2) Quantification of alkaline phosphatase (ALP) activity • 1) After 3 days of osteogenic induction, the culture medium was discarded, and the cells were washed with PBS twice. • 2) The cells were added with 500 μL of lysis buffer, and incubated at 37° C. for 15 minutes. • 3) The cells were scraped, transferred into a 1.5 mL EP tube, and centrifuged at 14000 rpm at 4° C. for 10 minutes. The supernatant was transferred into a new EP tube to measure the protein concentration, and the procedure was the same as that in Western blot. • 4) The capsule from the alkaline phosphatase kit (Stock substrate Sol.) was dissolved with 5 mL of distilled water under vigorous shaking, and mixed well. • 5) 50 μL of ALP buffer was added to 50 μL of Stock substrate Sol to obtain a mixture. 100 μL of the mixture was added to each well in a 96-well plate, then added with 10 μL of sample, and mixed well. A blank well without sample added was set for zero adjustment. • 6) The plate was incubated at 37° C. for 15 minutes, and the OD value was measured at 405 nm.
as §1

[3] = target: KDM6B/WDR5 protein complex (Homo sapiens, UniProt P61964); assay: Co-IP of KDM6B/WDR5 complex in bone marrow mesenchymal stem cells; format: cell-based; design: endogenous in cells; host or cells: bone marrow mesenchymal stem cells; conditions: FIG. 3C
Procedure: Protein was extracted from cells of knockout group and overexpression group using IP lysate. The knockout group cells SCAPs-Scramsh and SCAPs-KDM6Bsh, SCAPs-Scramsh and SCAPs-WDR5sh, BMSCs-Scramsh and BMSCs-WDR5sh were added with KDM6B antibody, WDR5 antibody, and IgG antibody, respectively, and then rotated on a shaker at 4° C. overnight. On the next day, the cells were added with Protein A/G beads and rotated on a rotary shaker at 4° C. for 2 hours. A complex of protein-antibody-agarose bead was formed, and the formation of a protein complex of KDM6B and WDR5WB was detected by WB. The overexpression group cells SCAPs-Vector, SCAPs-HA-KDM6B, SCAPs-HA-KDM6B-mut102, and SCAPs-HA-KDM6B-mut114 were added with ProteinA/G beads with HA antibody, and cells SCAPs Vector and SCAPs-Myc-WDR5 were added with ProteinA/G beads with Myc antibody. All cells were incubated overnight to form a complex of protein-antibody-agarose bead. The formation of a protein complex of KDM6B and WDR5 was detected by WB method. • (2) Grouping: Input group (loading amount of 25 μg); antibody group (loading amount of 800 μg, 2 μg of antibody); IgG group (loading amount of 800 μg, 2 μg of antibody). Samples were diluted with lysate. • (3) Preparation of protein A/G beads
The protein A/G beads were washed 4 times with PBS, and centrifuged at 2000 g for 2 minutes. The supernatant was carefully collected, and added with PBS to achieve a content of protein A/G beads of 50%. 30 μL of protein A/G beads was added to each tube, and rotated at 4 degrees overnight. • (4) The samples were centrifuged at 5000 rpm for 30 s at 4° C., and washed 4-5 times with PBS by inverted up and down. Then the samples were centrifuged, and the supernatant was discarded. The samples were added with 30 μL of 2× loading buffer, and placed at 100° C. for 5 minutes. • (5) The supernatant was subjected to electrophoresis.

[4] = tested on: senescent bone marrow mesenchymal stem cells; assay: Alizarin red staining and calcium quantification in senescent BMSCs of aged mice; format: cell-based, C57BL/6 mice; conditions: 2 weeks of osteogenic induction, FIG. 5C, D
Procedure: as §1, §2

[5] = tested on: senescent bone marrow mesenchymal stem cells; assay: ALP activity of senescent BMSCs of aged mice; format: cell-based, C57BL/6 mice; conditions: 3 days of osteogenic induction, FIG. 5B
Procedure: as §3, §1

[6] = tested on: bone marrow mesenchymal stem cells; assay: β-gal staining and quantification in BMSCs; format: cell-based, human; conditions: FIG. 4B, C
Procedure: (§4) Prior to the start of the experiment, the GENMED staining solution (Reagent E) in the kit was taken out of the refrigerator at −20° C., and thawed in an ice bath. Then 9.5 mL of GENMED dilution (Reagent D) was added into a 15 ml conical centrifuge tube, added with 500 μL of GENMED staining solution (Reagent E), mixed well, and then preheated in a 37° C. thermostatic sink. The obtained mixture was labeled as GENMED staining working solution.

[7] = tested on: senescent mouse bone marrow mesenchymal stem cells; assay: Senescence markers β-gal and P16 in senescent mouse BMSCs; format: cell-based
[8] = tested on: bone marrow mesenchymal stem cells; assay: Alizarin red staining and calcium quantification in BMSCs; format: cell-based, human; conditions: 2 weeks in osteogenic induction culture medium, FIG. 4E, F
Procedure: as §1, §2

[9] = tested on: stem cells from apical papilla; assay: β-gal staining and quantification in SCAPs; format: cell-based, human; conditions: SCAPs treated with polypeptide, FIG. 8C, D
Procedure: as §4

[10] = tested on: stem cells from apical papilla; assay: ALP activity of SCAPs after odontogenic induction; format: cell-based, human; conditions: SCAPs treated with polypeptide, 3 days of odontogenic induction, FIG. 8E
Procedure: as §3, §1

Substance | mineralization capacity, quantification of calcium ion [1] | ALP activity [2] | opening/blocking of the binding of KDM6B/WDR5 protein complex (Co-IP) [3] | mineralization capacity, quantification of calcium ion [4] | ALP activity [5] | number of β-gal positive cells (quantification) [6] | expression of senescence markers of β-gal and P16 [7] | mineralization capacity, quantification of calcium ion [8] | number of β-gal positive cells (quantification) [9] | ALP activity [10] | also measured
FITC-(Acp)-KEKSRRVLGNLDLQSYGRKKRRQRRR [peptide 102] | significantly higher | promoted | could effectively open the binding | significantly higher | promoted | significant reduction | reduce | significantly higher | significant reduction | promoted | mineralization capacity, quantification of calcium ion ([1]; listed as 102 peptide): 1.637; ALP activity ([2]; listed as 102-peptide): 4.218; mineralization capacity, quantification of calcium ion ([4]; listed as 102 peptide): 1.154; ALP activity ([5]; listed as 102-peptide): 6.951; number of β-gal positive cells (quantification) ([6]; listed as 102 peptide): 19.33; mineralization capacity, quantification of calcium ion ([8]; listed as 102 peptide): 1.584; number of β-gal positive cells (quantification) ([9]; listed as 102 peptide): 7.296; ALP activity ([10]; listed as 102peptide): 0.3961
FITC-(Acp)-ADLTISHCAADVVRAYGRKKRRQRRR [peptide 114] | significantly higher | promoted | could effectively open the binding | significantly higher | promoted | significant reduction | reduce | significantly higher | significant reduction | promoted | mineralization capacity, quantification of calcium ion ([1]; listed as 114 peptide): 1.619; ALP activity ([2]; listed as 114-peptide): 4.621; mineralization capacity, quantification of calcium ion ([4]; listed as 114 peptide): 1.251; ALP activity ([5]; listed as 114-peptide): 7.612; number of β-gal positive cells (quantification) ([6]; listed as 114 peptide): 16.76; mineralization capacity, quantification of calcium ion ([8]; listed as 114 peptide): 1.807; number of β-gal positive cells (quantification) ([9]; listed as 114 peptide): 3.978; ALP activity ([10]; listed as 114 peptide): 0.7238
